# Measured values published in publication PMC5494963 (Chemical research in toxicology, 2011).
# Target: cytochrome c oxidase (complex IV) (Bos taurus, UniProt P00396)
# Assay: spectrophotometric ferrocytochrome c oxidation at […] nm
# Type: biochemical
structure (smiles),measurement,value
S [sulfide],Ki,0.085 µM
